Assay results reported in patent US8388982B2, “Photo-induced damage mitigating agents and preparation and methods of use thereof” (priority 2008, dated 2013).

Experiments:
[1] = Saturation point of solutions for photomodification; assay type: physicochemical; conditions: solutions subjected to photomodification
Description: Of course, the amount of time for UV irradiation and room light exposure can be adjusted, as can the concentration of the 6-hydroxy-2,5,7,8-tetramethylchroman-2-carboxylic acid solution to be treated. For example, one to twenty-four hours of UV irradiation have been employed, as have 18 to 36 hours room light exposure. In general, and as shown in FIG. 9 described above, increasing UV exposures increase the ability of the mixture to effectively mitigate photo-induced damage, although there was no significant difference between the three, six, and 24 hour exposures (FIG. 9). Further, the solutions of 6-hydroxy-2,5,7,8-tetramethylchroman-2-carboxylic acid subjected to photomodification were typically of a concentration of 95-100 mM, which is near the saturation point for the compound. However, treatment of more or less concentrated solutions in contemplated and known chemical methods may be employed to increase the solubility of the compound prior to treatment.

polymerase = test: Sequencing-by-incorporation readlength; assay type: biochemical; conditions: for readlengths compared with 6-hydroxy-2,5,7,8-tetramethylchroman-2-carboxylic acid / no PIDMA: single-molecule, real-time sequencing reactions, FIG. 17; for sequencing readlength: purified fractions, Example 7
Description: In yet another aspect, the present invention is directed to illuminated reactions for single molecule analysis, including sequencing of nucleic acids by observing incorporation of nucleotides into a nascent nucleic acid sequence during template-directed polymerase-based synthesis. Such methods, generally referred to as “sequencing-by-incorporation,” involve the observation of the addition of nucleotides or nucleotide analogs in a template-dependent fashion in order to determine the sequence of the template strand. See, e.g., U.S. Pat. Nos. 6,780,591, 7,037,687, 7,344,865, 7,302,146, and Eid, et al. (2009) Science 323:133-138, all of which are incorporated herein by reference in their entireties for all purposes. Processes for performing this detection include the use of fluorescently labeled nucleotide analogs within a confined observation region, e.g., within a nanoscale well and/or tethered, either directly or indirectly to a surface, By using excitation illumination (i.e., illumination of an appropriate wavelength to excite the fluorescent label and induce a detectable signal), the fluorescently labeled bases can be detected as they are incorporated into the nascent strand, thus identifying the nature of the incorporated base, and as a result, the complementary base in the template strand.
One particularly preferred aspect of the invention is in conjunction with the sequencing by incorporation of nucleic acids within an optical confinement, such as a zero mode waveguide, Such reactions involve observation of an extremely small reaction volume in which one or only a few polymerase enzymes and their fluorescent substrates may be present. Zero mode waveguides, and their use in sequencing applications are generally described in U.S. Pat. Nos. 6,917,726 and 7,033,764, and preferred methods of sequencing by incorporation are generally described in Published U.S. Patent Application No. 2003-0044781, the full disclosures of which are incorporated herein by reference in their entireties for all purposes, and in particular for their teachings regarding such sequencing applications and methods. Briefly, arrays of zero mode waveguides (“ZMWs”), configured in accordance with the present invention may be employed as optical confinements for single molecule analytical reactions, e.g., for nucleic acid (e.g., DNA, RNA) sequence determination. In particular, as noted above, these ZMWs provide extremely small observation volumes at or near the transparent substrate surface, also termed the “base” of the ZMW. A nucleic acid synthesis complex, e.g., template sequence, polymerase, and primer, which is immobilized at the base of the ZMW, may then be specifically observed during synthesis to monitor incorporation of nucleotides in a template dependent fashion, and thus provide the identity and sequences of nucleotides in the template strand. This identification is typically accomplished by providing detectable label groups, such as fluorescent labeling molecules, on the nucleotides. In some instances, the labeled nucleotides terminate primer extension, allowing a “one base at a time” interrogation of the complex. If, upon exposure to a given labeled base, a base is incorporated, its representative fluorescent signal may be detected at the base of the ZMW. If no signal is detected, then the base was not incorporated and the complex is interrogated with each of the other bases, in turn. Once a base is incorporated, the labeling group is removed, e.g., through the use of a photocleavable linking group, and where the label was not the terminating group, a terminator, upon the 3′ end of the incorporated nucleotide, may be removed prior to subsequent interrogation.
Experiments were performed to test the performance of pure 6-hydroxy-2,5,7,8-tetramethylchroman-2-carboxylic acid against various mixtures of 6-hydroxy-2,5,7,8-tetramethylchroman-2-carboxylic acid and derivatives thereof. […]

[2] = Fluorescence correlation spectroscopy (FCS) triplet-state quenching; conditions: Alexa568 in low oxygen
Description: Fluorescence correlation spectroscopy (FCS) is a commonly used technique for experimentally characterizing the dynamics of fluorescent species that was initially introduced in the early 1970's (Magde, D., et al, (1972) Phys. Rev. Lett. 29: 705-708). In FCS, light is focused on a sample in a very small detection volume, and the measured fluorescence intensity fluctuations (due to diffusion, physical or chemical reactions, aggregation, etc.) are analyzed using the temporal autocorrelation. Further details are provided, e.g., in Ehrenberg, M. et al. (1974) Chem Phys 4: 390-401; Elson, E. L., et al. (1974) Biopolymers 13: 1-27; Magde, D., et al. (1974) Biopolymers 13: 29-61; Thompson, N. L. (1991) Topics in Fluorescence Spectroscopy Techniques, Vol. 1, ed. J. R. Lakowicz (New York: Plenum) pp. 337-378; Hess, et al. (2002) Biochemistry 41: 697; and Krichevsky, O., et al. (2002) Rep. Prog. Phys. 65: 251-297.
FCS experiments using the fluorophore Alexa568 in low oxygen were used to monitor the amount of the dye triplet state upon excitation over time as a measure of triplet-state quenching by 6-hydroxy-2,5,7,8-tetramethylchroman-2-carboxylic acid and derivatives thereof. Briefly, these experiments were performed on a confocal microscope setup (Olympus IX71 with water-immersion objective UPlanSApo, 60×) using a single line laser excitation (532 nm) at 0.4-mW intensity and two single photon avalanche detectors (SPAD detectors; Perkin Elmer, Waltham, Mass.). The FCS measurements were done in a reaction buffer containing 50 mM ACES, pH 7.1; 75 mM potassium acetate; and 5 mM DTT. A protocatechuic acid/protocatechuate-3,4-dioxygenase (PCA/PCD) oxygen scavenging system (see, e.g., Aitken, et al. (2007) “An Oxygen Scavenging System for Improvement of Dye Stability in Single-Molecule Fluorescence Experiments,” Biophys J. 94:1826-1835) was included, as well. Correlation curves were generated and recorded by a FLEX digital photon correlator (Correlator.com; Bridgewater, N.J.), and analyzed using Origin8.0 (OriginLabs; Northampton, Mass.).
In these experiments, the photo-induced damage mitigating ability of the preparation of photomodified 6-hydroxy-2,5,7,8-tetramethylchroman-2-carboxylic acid (described above), an aged 6-hydroxy-2,5,7,8-tetramethylchroman-2-carboxylic acid solution (stored at −20° C. for ˜1 year), a freshly prepared 6-hydroxy-2,5,7,8-tetramethylchroman-2-carboxylic acid solution (prepared according to manufacturer's instructions), and fresh preparations treated with various UV exposure regimes were compared. The results are plotted as autocorrelation curves in FIG. 9, and the amplitude of the “hump” at around one microsecond (0.001 millisecond (ms)) to a few microseconds indicates the triplet fraction of the dye, so the smaller the amplitude, the better the triplet quencher. […] The aged solution was the second best performer with an autocorrelation amplitude of ˜0.07 at a lag time of 0.001 ms.
The effectiveness of the photomodified solutions and the purified Fraction A and Fraction B as triplet-state quenchers/radical scavengers was tested by fluorescence correlation spectroscopy (FCS) using Alexa568 in low oxygen, as described above in Example 1. Two different intensity of excitation settings, 0.2 mW and 0.4 mW, were used for power dependence.

[3] = Photolysis of Fraction A to Fraction B under UV, followed by reverse phase HPLC; assay type: physicochemical
Description: Fraction A was further converted to Fraction B by photolysis in a separate experiment. Specifically, purified Fraction A (reverse phase HPLC peak migration time of 9.791 minutes; FIG. 12A) was subjected to UV irradiation in water for one hour to produce Fraction B (reverse phase HPLC peak migration time of 14.891 minutes; FIG. 12B).

[4] = Brightness of Alexa A-647 dye; conditions: purified fractions
[5] = Example 3, FIG. 11A, 0.2 mW intensity of excitation
[6] = Example 3, FIG. 11B, 0.4 mW intensity of excitation

Row | Structure (SMILES) | readlengths compared with 6-hydroxy-2,5,7,8-tetramethylchroman-2-carboxylic acid / no PIDMA (polymerase) | autocorrelation amplitude at a lag time of 0.001 ms [2, 5] | autocorrelation amplitude at a lag time of 0.001 ms [2, 6] | sequencing readlength (polymerase) | brightness of Alexa A-647 dye [4] | other results
1 | Cc1c(C)c2c(c(C)c1O)CCC(C)(C(=O)O)O2 (single isomer, unassigned) [6-hydroxy-2,5,7,8-tetramethylchroman-2-carboxylic acid, reference compound] | surprisingly similar to having no PIDMA present at all | – | – | – | – | concentration near the saturation point [1]: 95000 to 100000 µM; proportion of sequencing reactions that attained a readlength of at least one-fifth the maximum (polymerase; 0.5 mM, FIG. 13): about 10%; proportion of sequencing reactions that attained a readlength of at least one-tenth of the maximum readlength (polymerase; 0.5 mM, FIG. 13): 60%; sequencing reactions that attained a readlength of at least 30% of the maximum (polymerase; 0.5 mM, FIG. 13): very few; autocorrelation amplitude at a lag time of 0.001 ms ([2]; Example 1, FIG. 9, 532 nm, 0.4 mW, smaller amplitude = better triplet quencher): ~0.2
2 | CC1=C(C)C(=O)C(CCC(C)(O)C(=O)O)=C(C)C1=O (single isomer, unassigned) [Fraction A, 2-hydroxy-2-methyl-4-(2,4,5-trimethyl-3,6-dioxocyclohexa-1,4-dienyl)butanoic acid] | to a lesser extent | ~0.065 | ~0.043 | – | – | conversion from Fraction A to Fraction B ([3]; UV irradiation in water for one hour): 80%; time until conversion is essentially complete ([3]; under a portable UV lamp): about four; half-life ([3]; water under UV irradiation, UV irradiation in water, read-out: half-life of conversion to Fraction B): 26 min; readlength compared with fresh 6-hydroxy-2,5,7,8-tetramethylchroman-2-carboxylic acid (polymerase; 0.05 mM purified Fraction A with 0.5 mM 6-hydroxy-2,5,7,8-tetramethylchroman-2-carboxylic acid, FIG. 13): much longer readlengths; readlength compared with fresh 6-hydroxy-2,5,7,8-tetramethylchroman-2-carboxylic acid (polymerase; 0.10 mM purified Fraction A with 0.5 mM 6-hydroxy-2,5,7,8-tetramethylchroman-2-carboxylic acid, FIG. 13): much longer readlengths; readlength compared with fresh 6-hydroxy-2,5,7,8-tetramethylchroman-2-carboxylic acid (polymerase; 0.25 mM purified Fraction A with 0.5 mM 6-hydroxy-2,5,7,8-tetramethylchroman-2-carboxylic acid, FIG. 13): much longer readlengths
3 | CC(=O)CCC1=C(C)C(=O)C(C)=C(C)C1=O (single isomer, unassigned) [Fraction B, 2,3,5-trimethyl-6-(3-oxobutyl)-1,4-benzoquinone] | – | ~0.06 | ~0.04 | – | – | –
4 | CC1=C(C)C(=O)C2(CCC(C)(C(=O)O)O2)C(C)(O)C1=O (single isomer, unassigned) [fraction 5, 10-hydroxy-2,7,8,10-tetramethyl-6,9-dioxo-1-oxaspiro[4.5]dec-7-ene-2-carboxylic acid] | longer readlengths | – | – | significantly increase sequencing readlength | increase the brightness | –
5 | CC1=C(C)C(=O)C2(CCC(C)(C(=O)O)O2)C(C)(O)C1=O (single isomer, unassigned) [fraction 7, 10-hydroxy-2,7,8,10-tetramethyl-6,9-dioxo-1-oxaspiro[4.5]dec-7-ene-2-carboxylic acid] | longer readlengths | – | – | significantly increase sequencing readlength | increase the brightness | –
